{
  "source": "patent US20100267561A1",
  "about": "“HERBICIDAL PYRIDAZINONE DERIVATIVES” (priority 2007, published 2010)",
  "assay_in_all_cases": "Test B pre-/postemergence plant response",
  "type_in_all_cases": "in vivo",
  "key": {"[1]": {"tested_on": "blackgrass (Alopecurus myosuroides)", "conditions": "for Plant response rating, Blackgrass: Preemergence", "outline": "(§1)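 Seeds were sown and sprayed preemergence, while plants at 2 to 18 cm (1- to 4-leaf stage) got postemergence sprays. Compounds were formulated in a non-phytotoxic solvent mixture with surfactant. After 13 to 15 days in a greenhouse, injury was rated visually against untreated controls, 0 (no effect) to 100 (complete control).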"}, "[2]": {"tested_on": "catchweed bedstraw (Galium aparine)", "conditions": "Preemergence", "outline": "as §1"}, "[3]": {"tested_on": "cocklebur (Xanthium strumarium)", "conditions": "Preemergence", "outline": "as §1"}, "[4]": {"tested_on": "common (oilseed) sunflower (Helianthus annuus)", "conditions": "Preemergence", "outline": "as §1"}, "[5]": {"tested_on": "common ragweed (Ambrosia elation)", "conditions": "Preemergence", "outline": "as §1"}, "[6]": {"tested_on": "giant foxtail (Setaria faberii)", "conditions": "Preemergence", "outline": "as §1"}, "[7]": {"tested_on": "goosegrass (Eleusine indica)", "conditions": "Preemergence", "outline": "as §1"}, "[8]": {"tested_on": "johnsongrass (Sorghum halepense)", "conditions": "Preemergence, scale 0 to 100", "outline": "as §1"}, "[9]": {"tested_on": "lambsquarters (Chenopodium album)", "conditions": "Preemergence", "outline": "as §1"}, "[10]": {"tested_on": "large crabgrass (Digitaria sanguinalis)", "conditions": "Preemergence", "outline": "as §1"}, "[11]": {"tested_on": "wheat (Triticum aestivum)", "conditions": "Preemergence", "outline": "as §1"}, "wild oat (Avena fatua)": {"tested_on": "wild oat (Avena fatua)", "conditions": "Preemergence", "outline": "as §1"}, "[12]": {"tested_on": "yellow nutsedge (Cyperus esculentus)", "conditions": "Preemergence", "outline": "as §1"}, "[13]": {"conditions": "31 g ai/ha, 0 to 100 scale, 0 no effect, 100 complete control"}},
  "data": [
    {"smiles": "Cc1cc(-c2ccc(C(F)(F)F)cc2)nn1-c1c(OC(=O)C(C)(C)C)cnn(C)c1=O", "note": "[Compound 2]", "values": [
      {"measurement": "Blackgrass plant response rating", "setting": "[1]; 250 g ai/ha, preemergence, 0-100 scale", "value": 100},
      {"measurement": "Plant response rating, Blackgrass", "setting": "[1]; [13]", "value": 60},
      {"measurement": "Plant response rating, Blackgrass", "setting": "[1]; 62 g ai/ha, scale 0 to 100", "value": 80},
      {"measurement": "Plant response rating, Blackgrass", "setting": "[1]; 125 g ai/ha, scale 0 to 100", "value": 100},
      {"measurement": "Plant response rating, Galium", "setting": "[2]; [13]", "value": 100},
      {"measurement": "Plant response rating, Galium", "setting": "[2]; 62 g ai/ha, scale 0 to 100", "value": 100},
      {"measurement": "Plant response rating, Galium", "setting": "[2]; 250 g ai/ha, scale 0 to 100", "value": 100},
      {"measurement": "Plant response rating, Cocklebur", "setting": "[3]; [13]", "value": 0},
      {"measurement": "Plant response rating, Cocklebur", "setting": "[3]; 62 g ai/ha, scale 0 to 100", "value": 0},
      {"measurement": "Plant response rating, Cocklebur", "setting": "[3]; 125 g ai/ha, scale 0 to 100", "value": 0},
      {"measurement": "Plant response rating, Cocklebur", "setting": "[3]; 250 g ai/ha, scale 0 to 100", "value": 0},
      {"measurement": "Plant response rating, Sunflower", "setting": "[4]; [13]", "value": 0},
      {"measurement": "Plant response rating, Sunflower", "setting": "[4]; 62 g ai/ha, scale 0 to 100", "value": 0},
      {"measurement": "Plant response rating, Sunflower", "setting": "[4]; 125 g ai/ha, scale 0 to 100", "value": 0},
      {"measurement": "Plant response rating, Sunflower", "setting": "[4]; 250 g ai/ha, scale 0 to 100", "value": 0},
      {"measurement": "Plant response rating, Ragweed", "setting": "[5]; [13]", "value": 0},
      {"measurement": "Plant response rating, Ragweed", "setting": "[5]; 62 g ai/ha, scale 0 to 100", "value": 0},
      {"measurement": "Plant response rating, Ragweed", "setting": "[5]; 125 g ai/ha, scale 0 to 100", "value": 0},
      {"measurement": "Plant response rating, Ragweed", "setting": "[5]; 250 g ai/ha, scale 0 to 100", "value": 0},
      {"measurement": "Plant response rating, Foxtail, Giant", "setting": "[6]; [13]", "value": 100},
      {"measurement": "Plant response rating, Foxtail, Giant", "setting": "[6]; 62 g ai/ha, scale 0 to 100", "value": 100},
      {"measurement": "Plant response rating, Foxtail, Giant", "setting": "[6]; 125 g ai/ha, scale 0 to 100", "value": 100},
      {"measurement": "Plant response rating, Foxtail, Giant", "setting": "[6]; 250 g ai/ha, scale 0 to 100", "value": 100},
      {"measurement": "Plant response rating, Goosegrass", "setting": "[7]; [13]", "value": 50},
      {"measurement": "Plant response rating, Goosegrass", "setting": "[7]; 62 g ai/ha, scale 0 to 100", "value": 60},
      {"measurement": "Plant response rating, Goosegrass", "setting": "[7]; 125 g ai/ha, scale 0 to 100", "value": 95},
      {"measurement": "Plant response rating, Goosegrass", "setting": "[7]; 250 g ai/ha, scale 0 to 100", "value": 95},
      {"measurement": "Plant response rating, Johnsongrass", "setting": "[8]; 62 g ai/ha", "value": 80},
      {"measurement": "Plant response rating, Johnsongrass", "setting": "[8]; 250 g ai/ha", "value": 80},
      {"measurement": "Plant response rating, Lambsquarters", "setting": "[9]; [13]", "value": 0},
      {"measurement": "Plant response rating, Lambsquarters", "setting": "[9]; 62 g ai/ha, scale 0 to 100", "value": 0},
      {"measurement": "Plant response rating, Lambsquarters", "setting": "[9]; 125 g ai/ha, scale 0 to 100", "value": 0},
      {"measurement": "Plant response rating, Lambsquarters", "setting": "[9]; 250 g ai/ha, scale 0 to 100", "value": 30},
      {"measurement": "Plant response rating, Crabgrass, Large", "setting": "[10]; [13]", "value": 98},
      {"measurement": "Plant response rating, Crabgrass, Large", "setting": "[10]; 62 g ai/ha, scale 0 to 100", "value": 100},
      {"measurement": "Plant response rating, Crabgrass, Large", "setting": "[10]; 125 g ai/ha, scale 0 to 100", "value": 100},
      {"measurement": "Plant response rating, Crabgrass, Large", "setting": "[10]; 250 g ai/ha, scale 0 to 100", "value": 100},
      {"measurement": "Plant response rating, Wheat", "setting": "[11]; [13]", "value": 30},
      {"measurement": "Plant response rating, Wheat", "setting": "[11]; 62 g ai/ha, scale 0 to 100", "value": 50},
      {"measurement": "Plant response rating, Wheat", "setting": "[11]; 125 g ai/ha, scale 0 to 100", "value": 60},
      {"measurement": "Plant response rating, Wheat", "setting": "[11]; 250 g ai/ha, scale 0 to 100", "value": 75},
      {"measurement": "Plant response rating, Oat, Wild", "setting": "wild oat (Avena fatua); [13]", "value": 0},
      {"measurement": "Plant response rating, Oat, Wild", "setting": "wild oat (Avena fatua); 62 g ai/ha, scale 0 to 100", "value": 50},
      {"measurement": "Plant response rating, Oat, Wild", "setting": "wild oat (Avena fatua); 250 g ai/ha, scale 0 to 100", "value": 60},
      {"measurement": "Plant response rating, Nutsedge, Yellow", "setting": "[12]; [13]", "value": 0},
      {"measurement": "Plant response rating, Nutsedge, Yellow", "setting": "[12]; 62 g ai/ha, scale 0 to 100", "value": 0},
      {"measurement": "Plant response rating, Nutsedge, Yellow", "setting": "[12]; 125 g ai/ha, scale 0 to 100", "value": 0},
      {"measurement": "Plant response rating, Nutsedge, Yellow", "setting": "[12]; 250 g ai/ha, scale 0 to 100", "value": 0}
    ]}
  ]
}
